Test results taken from patent US4980377A, “1-(aminophenyl)-2-aminopropanone derivatives” (Laboratoire L. Lafon, priority 1984, dated 1990).
“Also recorded” adds a separate entry of the source.

What was measured:
[1] = system: rats; test: Interaction with apomorphine in rats; assay type: in vivo, rat; conditions: i.p.
Method: CRL 41 153 is administered to groups of 6 rats 0.5 hour before the subcutaneous injection of 0.5 mg/kg of apomorphine.

[2] = system: male mice; test: Acute toxicity by intraperitoneal administration; assay type: in vivo, mouse; conditions: i.p.
Method: (§1) In the neuropsychopharmacological study which follows, a solution of CRL 41 153 in distilled water (pH 1.5) was administered intraperitoneally in a volume of 20 ml/kg to male mice and 5 ml/kg to male rats.

[3] = system: rats; test: Interaction with amphetamine; assay type: in vivo, rat; conditions: i.p.
Method: Amphetamine (2 mg/kg) is injected intraperitoneally into groups of 6 rats 30 minutes after the administration of CRL 41 153. […] 4 mg/kg and 16 mg/kg, CRL 41 153 potentiates the intensity and duration of the stereotypies induced by amphetamine.

[4] = system: rats; test: Overall behavior and reactivities in rats; assay type: in vivo, rat; conditions: i.p.
Method: as §1
(§2) Groups of three animals are observed before and then 0.25 hour, 0.50 hour, 1 hour, 2 hours, 3 hours and 24 hours after the administration of CRL 41 153.

[5] = system: mice; test: Overall behavior and reactivities in mice; assay type: in vivo, mouse; conditions: i.p.
Method: as §1, §2

[6] = system: mice; test: Intergroup aggressiveness; assay type: in vivo, mouse; conditions: i.p.
Method: After they have stayed for 3 weeks in the two halves of a cage divided by an opaque partition, groups of 3 mice receive CRL 41 153. Half an hour later, the two groups from the same cage are brought together by removal of the partition, and the number of fights which occur in 10 minutes is noted.

[7] = system: mice; test: Spontaneous motility; assay type: in vivo, mouse; conditions: i.p.
Method: 0.5 hour after they have received CRL 41 153, the mice (6 per dose, 12 control animals) are placed in an actimeter, where their motility is recorded for 30 minutes.

[8] = pH of solutions in distilled water; assay type: physicochemical
Method: The neuropsychopharmacological study was undertaken according to the procedures described above for CRL 41 153, CRL 41 213 being adminstered intraperitoneally, in solution in distilled water, in a volume of 20 ml/kg to male mice and a volume of 5 ml/kg to male rats, and the pH of the injected solution varying with the concentration of CRL 41 213 according to the data given in Table II below.

[9] = system: mice; test: Behavioral despair; assay type: in vivo, mouse; conditions: forcibly immersed mice, i.p.
From the text: Half an hour after they have received CRL 41 153, groups of 6 mice are placed in a beaker filled with water to a height of 6 cm. The total period of immobility between the 2nd and 6th minutes following immersion is noted.

[10] = system: CNS; test: Neuropsychopharmacological profile as a whole; assay type: in vivo, mice and rats
Method: as §1

[11] = system: mice; test: Interaction with apomorphine in mice; assay type: in vivo, mouse; conditions: i.p.
Method: Groups of 6 mice receive CRL 41 153 0.5 hour before the subcutaneous injection of 1 or 16 mg/kg of apomorphine.

[12] = system: mice; test: Motility reduced by habituation to the enclosure; assay type: in vivo, mouse; conditions: i.p.
Method: After they have stayed In the actimeters for 18 hours, (he mice (6 per dose, 12 control animals) receive CRL 41 153. They are immediately returned to their respective enclosures and, half an hour later, their motility is recorded for 30 minutes.

[13] = system: mice; test: Interaction with oxotremorine; assay type: in vivo, mouse; conditions: i.p.
Method: CRL 41 153 is administered to groups of 6 mice 0.5 hour before the intraperitoneal injection of 0.5 mg/kg of oxotremorine.

[14] = system: mice; test: Motility reduced by hypoxic aggression; assay type: in vivo, mouse; conditions: i.p.
Method: Half an hour after they have received CRL 41 153, the mice (10 per dose, 20 control animals) are subjected to acute hypobaric anoxia [pressure reduction of 600 mm Hg (i.e. about 8×10^4 Pa) in 90 seconds; release of vacuum in 45 seconds] and are then placed in an actimeter, where their motility is recorded for 10 minutes.

[15] = system: rats; test: Investigation of stereotype movements; assay type: in vivo, rat; conditions: i.p., compared with amphetamine 2 mg/kg
Method: Immediately after the intraperitoneal administration of CRL 41 194 or amphetamine, groups of 6 rats are placed in Plexiglass boxes (20×10×10 cm). The stereotype movements are graded from 0 to 3 every 10 minutes until they wear off.
Groups of 6 rats receive an intraperitoneal injection of CRL 41 213, distilled water or amphetamine immediately before being placed in small cages, where their stereotype behavior is graded every 10 minutes until the effect wears off.

[16] = system: mice; test: Interaction with reserpine; assay type: in vivo, mouse; conditions: i.p.
Method: Four hours after the intraperitoneal injection of 2.5 mg/kg of reserpine, groups of 6 mice receive CRL 41 153.

[17] = system: mice; test: Asphyxiant anoxia (gallamine triiodoethylate); assay type: in vivo, mouse; conditions: i.p., curarizing agent
Method: Groups of 10 mice receive CRL 41 153 half an hour before the intraperitoneal administration of 32 mg/kg of gallamine triiodoethylate (reference curarizing agent).

[18] = system: mice; test: Interaction with barbital; assay type: in vivo, mouse; conditions: i.p., barbital 220 mg/kg
Method: Half an hour after the administration of CRL 41 153, groups of 10 mice receive an intraperitoneal injection of barbital (220 mg/kg).

[19] = system: gravid White New Zealand female rabbits; test: Teratogenicity in gravid White New Zealand rabbits; assay type: in vivo, rabbit; conditions: dose 0 mg/kg [sic]
Method in brief: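 Fetuses harvested by cesarean on gestation day 29 were scored for number and for any malformation (limb blockade, anury, tail or skull defects, exencephaly).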

[20] = system: mice; test: Four plate test, traction and electric shock; assay type: in vivo, mouse; conditions: i.p.
Method: The test is performed on groups of 10 mice 30 minutes after the administration of CRL 41 153.

CCCNC(C)C(=O)c1ccc(N)cc1 (centres unmarked) [CRL 41 213]
Effect on stereotypies induced by apomorphine [1]: as from a dose of 2 mg/kg, CRL 41 213 causes an increase in the index of the stereotypes induced by apomorphine; also recorded: This increase is large in terms of intensity and duration at doses of 8 mg/kg and 32 mg/kg | LD0 (maximum non-lethal dose) [2]: greater than or equal to 128 mg/kg | LD100 [2]: less than or equal to 256 mg/kg | Effect on stereotypies induced by amphetamine [3]: as from a dose of 2 mg/kg, CRL 41 213 potentiates the stereotypies induced by amphetamine | Observed symptoms ([4]; 0.5 mg/kg): mydriasis for 1 hour | Observed symptoms ([4]; 2 mg/kg): excitation with the presence of stereotypies; also recorded: an increase in the fear reaction and in the reactivity to touch and noise for 2 hours | Observed symptoms ([4]; 8 mg/kg): excitation with the presence of stereotypies; also recorded: an increase in the fear reaction and in the reactivity to touch and noise for 3 hours; also recorded: mydriasis for more than 3 hours | Observed symptoms ([4]; 32 mg/kg): excitation with the presence of very intense stereotypies; also recorded: an increase in the fear reaction and in the reactivity to touch and noise for 3 hours; also recorded: exophthalmos from 0.5 hour to 3 hours; also recorded: mydriasis for 3 hours; also recorded: polypnea | Observed symptoms ([5]; 1 mg/kg): moderate sedation 0.5 hour after administration | Observed symptoms ([5]; 4 mg/kg): moderate excitation 0.5 hour after administration; also recorded: piloerection for 0.25 hour | Observed symptoms ([5]; 16 mg/kg): excitation for more than 3 hours with the presence of stereotypies for about 2 hours as from the 1st hour following administration; also recorded: an increase in the fear reaction, the reactivity to touch and the aggressiveness for more than 3 hour; also recorded: salivation, lacrimation and exophthalmos for 1 hour; also recorded: polypnea | Observed symptoms ([5]; 64 mg/kg): clonic convulsions for 0.5 hour; also recorded: excitation for more than 3 hours with the presence of stereotypies; also recorded: an increase in the fear reaction and the reactivity to touch from 2 hours to more than 3 hours; also recorded: mydriasis for more than 3 hours; also recorded: polypnea | Number of fights / intergroup aggressiveness [6]: does not modify the intergroup aggressiveness of mice | Spontaneous motor activity [7]: At doses of 1 mg/kg, 4 mg/kg and 16 mg/kg, CRL 41 213 causes a substantial increase in the spontaneous motor activity of mice; also recorded: At the strongest dose studied (64 mg/kg), CRL 41 213 causes clonic convulsions and stereotypies | pH ([8]; 0.2 g/liter in distilled water): 4.0 | pH ([8]; 0.4 g/liter in distilled water): 3.5 | pH ([8]; 0.8 g/liter in distilled water): 3.0 | pH ([8]; 1.6 g/liter in distilled water): 2.5 | pH ([8]; 3.2 g/liter in distilled water): 2.0 | pH ([8]; 25 g/liter in distilled water): 1.5 | pH ([8]; 50 g/liter in distilled water): 1.0 | pH ([8]; ≤0.1 g/liter in distilled water): 5.0 | Period of immobility due to despair [9]: as from a dose of 0.5 mg/kg, CRL 41 213 distinctly reduces the period of immobility; also recorded: Total antagonism is obtained at doses of 4 mg/kg, 16 mg/kg and 64 mg/kg | Anticonvulsant effects (overall) ([10]; conclusion of the tests): at high but non-toxic doses, CRL 41 213 causes the appearance of clonic convulsions but opposes the convulsant effects of electric shock | Antidepressant effects (overall) ([10]; conclusion of the tests): possessing antidepressant, stimulant and arousing properties | Stimulant effects (overall) ([10]; conclusion of the tests): possessing antidepressant, stimulant and arousing properties | α-adrenergic stimulant effects (overall) ([10]; conclusion of the tests): effects reflecting peripheral α-adrenergic stimulation | Peripheral α-adrenergic signs (mydriasis, salivation, lacrimation, exophthalmos) ([10]; species and dose not stated): mydriasis; also recorded: presence of salivation, lacrimation and exophthalmos | Effect on hypothermia induced by apomorphine [11]: at doses of 1 mg/kg, 4 mg/kg, 16 mg/kg and 64 mg/kg, CRL 41 213 strongly opposes the hypothermia induced by apomorphine in mice | Effect on righting behavior and stereotypies induced by apomorphine [11]: At the strongest dose studied (64 mg/kg), CRL 41 213 moderately reduces the righting behavior without modifying the stereotypies induced by apomorphine | Motor activity of mice accustomed to their enclosure [12]: at doses of 4 mg/kg, 16 mg/kg and 64 mg/kg, CRL 41 213 causes a resumption in the motor activity of mice accustomed to their enclosure | Effect on hypothermic action of oxotremorine [13]: As from a dose of 4 mg/kg, CRL 41 213 opposes the hypothermic action of oxotremorine; also recorded: At the weakest dose studied (1 mg/kg), this effect is scarcely detectable | Effect on trembling induced by oxotremorine [13]: At the strongest doses (16 and 64 mg/kg), CRL 41 213 reduces the intensity of the trembling | Action on the peripheral cholinergic symptoms ([13]; oxotremorine): does not change the signs of peripheral cholinergic stimulation produced by oxotremorine | Motor recovery of mice after hypobaric hypoxia [14]: As from 1 mg/kg, CRL 41 213 causes a distinct improvement in the motor recovery | Stereotype movements [15]: As from a dose of 2 mg/kg, CRL 41 213 causes the appearance of stereotype movements in rats, the intensity of which is substantially comparable to that obtained with 2 mg/kg of amphetamine; also recorded: Increasing the doses leads to an increase in the intensity and duration of these stereotypies | Effect on hypothermia induced by reserpine [16]: at doses of 1 mg/kg and 4 mg/kg, CRL 41 213 opposes the hypothermic action of reserpine; also recorded: at a weaker dose (0.25 mg/kg), no effect is detected | Effect on ptosis induced by reserpine [16]: at doses of 1 mg/kg and 4 mg/kg, CRL 41 213 opposes the hypothermic action of reserpine as well as the ptosis induced by reserpine; also recorded: at a weaker dose (0.25 mg/kg), no effect is detected | Time taken for convulsions to occur [17]: does not modify (he time taken for convulsions to occur | Time taken for death to occur [17]: at a dose of 64 mg/kg, it moderately increases the time taken for death to occur | Duration of the sleep induced by barbital [18]: as from a dose of 0.5 mg/kg. CRL 41 213 reduces the duration of the sleep induced by barbital; also recorded: Total antagonism is obtained for doses equal to or greater than 4 mg/kg | Affected foetuses, number [19]: 1 | Total foetuses (live) [19]: 84 | Affected foetuses, % ([19]; normal limit 1.5%): 1.19% | Effect on convulsant effects of electric shock [20]: opposes the convulsant effects of electric shock 116 to 64 mg/kg) | Motor incapacity (traction) [20]: causes motor incapacity (64 mg/kg) | Number of punished passes in the four plate test [20]: At doses of 1 mg/kg, 4 mg/kg and 16 mg/kg, CRL 41 213 causes an increase in the number of punished passes; also recorded: This increase is not present at the strongest dose used (64 mg/kg)
